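1) Cells in 96-well plates. 2) Compound, 48 h, 5 concentrations. 3) Linear interpolation between surrounding doses. 4) Unreached endpoint = highest concentration. GI50 = concentration required for 50% inhibition of growth. TGI is the concentration that stops growth completely.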
Key:
Test in all cases: growth of human tumour cells (NCI), 48 h
OVCAR-5 ovarian = system: OVCAR-5 ovarian
DU-145 prostate = system: DU-145 prostate
HOP-62 NSCLC = system: HOP-62 NSCLC
ACHN renal = system: ACHN renal
SW-620 colon = system: SW-620 colon
HT29 colon = system: HT29 colon
U251 CNS = system: U251 CNS
SK-MEL-2 melanoma = system: SK-MEL-2 melanoma
UACC-257 melanoma = system: UACC-257 melanoma
KM12 colon = system: KM12 colon
NCI-H522 lung = system: NCI-H522 lung
SR leukemia = system: SR leukemia
CCRF-CEM leukemia = system: CCRF-CEM leukemia
HCC-2998 colon = system: HCC-2998 colon
OVCAR-8 ovarian = system: OVCAR-8 ovarian
SNB-19 CNS = system: SNB-19 CNS
SK-MEL-5 melanoma = system: SK-MEL-5 melanoma
PC-3 prostate = system: PC-3 prostate
NCI/ADR-RES ovarian = system: NCI/ADR-RES ovarian
K-562 leukemia = system: K-562 leukemia
MDA-MB-231 breast = system: MDA-MB-231 breast
UACC-62 melanoma = system: UACC-62 melanoma
A549 NSCLC = system: A549 NSCLC
786-0 renal = system: 786-0 renal
HOP-92 NSCLC = system: HOP-92 NSCLC
SK-OV-3 ovarian = system: SK-OV-3 ovarian
SNB-75 CNS = system: SNB-75 CNS
CAKI-1 renal = system: CAKI-1 renal
TK-10 renal = system: TK-10 renal

Cc1ccc(/C=C(/C#N)n2nnc3cccc(F)c32)cc1
TGI (OVCAR-5 ovarian): 9120 nM
GI50 (DU-145 prostate): 332 nM
TGI (DU-145 prostate): 7130 nM
GI50 (HOP-62 NSCLC): 1370 nM
TGI (HOP-62 NSCLC): > 100000 nM
GI50 (ACHN renal): 579 nM
TGI (ACHN renal): 4460 nM
GI50 (SW-620 colon): 354 nM
TGI (SW-620 colon): 5530 nM
GI50 (HT29 colon): 359 nM
TGI (HT29 colon): 11900 nM
GI50 (U251 CNS): 489 nM
TGI (U251 CNS): 14400 nM
GI50 (SK-MEL-2 melanoma): 522 nM
TGI (SK-MEL-2 melanoma): 19000 nM
GI50 (UACC-257 melanoma): 1130 nM
TGI (UACC-257 melanoma): 39900 nM
GI50 (KM12 colon): 332 nM
TGI (KM12 colon): 5160 nM
GI50 (NCI-H522 lung): 194 nM
TGI (NCI-H522 lung): 14900 nM
GI50 (SR leukemia): 122 nM
TGI (SR leukemia): > 35500 nM
GI50 (CCRF-CEM leukemia): 389 nM
TGI (CCRF-CEM leukemia): > 100000 nM
GI50 (HCC-2998 colon): 1110 nM
TGI (HCC-2998 colon): 5150 nM
GI50 (OVCAR-8 ovarian): 594 nM
TGI (OVCAR-8 ovarian): > 100000 nM
GI50 (SNB-19 CNS): 466 nM
TGI (SNB-19 CNS): 17400 nM
GI50 (SK-MEL-5 melanoma): 423 nM
TGI (SK-MEL-5 melanoma): 4220 nM
GI50 (PC-3 prostate): 412 nM
TGI (PC-3 prostate): 14600 nM
GI50 (NCI/ADR-RES ovarian): 159 nM
TGI (NCI/ADR-RES ovarian): 848 nM
GI50 (K-562 leukemia): 168 nM
TGI (K-562 leukemia): > 100000 nM
GI50 (MDA-MB-231 breast): 807 nM
TGI (MDA-MB-231 breast): 9660 nM
GI50 (UACC-62 melanoma): 320 nM
TGI (UACC-62 melanoma): 11100 nM
GI50 (A549 NSCLC): 696 nM
TGI (A549 NSCLC): 44500 nM
GI50 (786-0 renal): 384 nM
TGI (786-0 renal): 14100 nM
GI50 (HOP-92 NSCLC): 309 nM
TGI (HOP-92 NSCLC): 4750 nM
GI50 (SK-OV-3 ovarian): 931 nM
TGI (SK-OV-3 ovarian): 55100 nM
GI50 (SNB-75 CNS): 212 nM
TGI (SNB-75 CNS): 623 nM
GI50 (CAKI-1 renal): 327 nM
TGI (CAKI-1 renal): 25300 nM
GI50 (TK-10 renal): 1220 nM
TGI (TK-10 renal): 13000 nM
